Assay results published in ChEMBL document CHEMBL4312044, “Pharmacokinetics-Driven Optimization of 7-Methylimidazo[1,5-a]pyrazin-8(7H)-one as Novel BRD4 Inhibitors” (ACS Med Chem Lett, 2019).
Activity calls are given as the source filed them. The rule behind the calls is not given here.

Legend:
[1] = system: Raji; test: Antiproliferative activity against human Raji cells assessed as reduction in cell viability at 2 uM by MTT assay relative to control; assay type: functional; details: for inhibition at 2 µM: Homo sapiens, Raji
[2] = molecular target: T1, Bromodomain-containing protein 4 (Homo sapiens, UniProt O60885); test: Inhibition of BRD4 bromodomain1 (unknown origin) using peptide H4 as substrate incubated for 15 mins followed by substrate addition and measured after 1 hr by alphascreen assay
[3] = molecular target: T1, Bromodomain-containing protein 4; test: Inhibition of BRD4 bromodomain2 (unknown origin) using peptide H4 as substrate incubated for 15 mins followed by substrate addition and measured after 1 hr by alphascreen assay
[4] = Metabolic stability in human liver microsomes assessed as residue remaining at 10 uM incubated for 20 and 40 mins; assay type: ADME, Microsome; details: read-out: Stability
[5] = system: HL-60; test: Antiproliferative activity against human HL60 cells assessed as reduction in cell viability by MTT assay; assay type: functional, cell-based
[6] = system: BXPC-3; test: Antiproliferative activity against human BxPC3 cells assessed as reduction in cell viability at 2 uM by MTT assay relative to control; assay type: functional; details: for inhibition at 2 µM: Homo sapiens, BXPC-3
[7] = Metabolic stability in rat liver microsomes assessed as residue remaining at 10 uM incubated for 20 and 40 mins; assay type: ADME, Microsome; details: read-out: Stability
[8] = Metabolic stability in mouse liver microsomes assessed as residue remaining at 10 uM incubated for 20 and 40 mins; assay type: ADME, Microsome; details: read-out: Stability
[9] = system: BXPC-3; test: Antitumor activity against human BxPC3 cells xenografted in BALB/c SCID mouse assessed as reduction in tumor growth inhibition at 30 mg/kg, ip bid measured on day 14 relative to control; assay type: functional; details: BXPC-3, ip, 336 h, read-out: TGI
[10] = system: BXPC-3; test: Inhibition of colony formation in human BxPC3 cells at 2 uM relative to control; assay type: functional
[11] = Toxicity in BALB/c SCID mouse assessed as reduction in body weight at 5 and 50 mg/kg, ip measured on day 14; assay type: organism-based; details: in vivo
[12] = system: BXPC-3; test: Antitumor activity against human BxPC3 cells xenografted in BALB/c SCID mouse assessed as reduction in tumor growth inhibition at 5 mg/kg, ip measured on day 14 relative to control; assay type: functional; details: BXPC-3, ip, 336 h, read-out: TGI
[13] = system: BXPC-3; test: Antitumor activity against human BxPC3 cells xenografted in BALB/c SCID mouse assessed as reduction in tumor growth inhibition at 50 mg/kg, ip measured on day 14 relative to control; assay type: functional; details: BXPC-3, ip, 336 h, read-out: TGI
[14] = system: Mus musculus; test: Down regulation of c-Myc in BALB/c SCID mouse xenogrfted with human BxPC3 cells at 50 mg/kg, ip measured on day 14 by immunohistochemical analysis; assay type: functional, organism-based
[15] = system: Mus musculus; test: Upregulation of […] in BALB/c SCID mouse xenogrfted with human BxPC3 cells at 50 mg/kg, ip measured on day 14 by immunohistochemical analysis; assay type: functional, organism-based
[16] = system: BXPC-3; test: Antitumor activity against human BxPC3 cells xenografted in BALB/c SCID mouse assessed as suppression of cell proliferation at 50 mg/kg, ip measured on day 14 by Ki-67 staining based assay; assay type: functional, organism-based
[17] = Drug localization in nuclei of human BxPC3 cells at 2 uM incubated for 0.5 hrs by Hoechst 33342 staining based microscopic analysis; assay type: ADME, cell-based; details: bxpc-3, 0.5 h

Structure (SMILES) | inhibition at 2 µM [1] | IC50 [2] | IC50 [3] | remaining at 40 min, 10 µM [4] | IC50 [5] | inhibition at 2 µM [6] | remaining at 40 min, 10 µM [7] | remaining at 40 min, 10 µM [8] | inhibition (INH) [1] | inhibition (INH) [6] | inhibition in vivo at 30 mg/kg [9] | inhibition at 2 µM [10] | Activity [11] | inhibition in vivo at 5 mg/kg [12] | inhibition in vivo at 50 mg/kg [13] | Activity [14] | Activity [15] | Activity [16] | Drug uptake [17]
CCS(=O)(=O)Nc1ccc(Oc2ccc(-c3c(C)noc3C)cc2)c(-c2cn(C)c(=O)c3cncn23)c1 | 22.9% | 64 nM | 50 nM | 54.3% | 510 nM | 23.2% | 59.1% | 48.2% | – | – | – | – | – | – | – | – | – | – | –
Cc1sc2c(c1C)C(c1ccc(Cl)cc1)=N[C@@H](CC(=O)OC(C)(C)C)c1nnc(C)n1-2 | – | – | – | – | 870 nM | – | – | – | 47.9% | 31.1% | – | – | – | – | – | – | – | – | –
CCS(=O)(=O)Nc1ccc(Oc2cc(C)ccc2F)c(-c2cn(C)c(=O)c3cncn23)c1 | 49.9% | 46 nM | 21 nM | 14.1% | 270 nM | 28.8% | 5.7% | 4.6% | – | – | – | – | – | – | – | – | – | – | –
O=c1[nH]cc(F)c(=O)[nH]1 [FLUOROURACIL] | – | – | – | – | – | – | – | – | – | – | 67% | – | – | – | – | – | – | – | –
CCS(=O)(=O)Nc1ccc(Oc2ccc(F)cc2)c(-c2cn(C)c(=O)c3cncn23)c1 | 39.5% | 30 nM | 29 nM | 95.2% | 45 nM | 38.4% | 76.2% | 65.6% | – | – | – | > 50% | Non-Toxic | 22% | 65% | Active | Active | Active | Active
CCS(=O)(=O)Nc1ccc(Oc2ccc(F)cc2F)c(-c2cn(C)c(=O)c3cncn23)c1 | 46.2% | 33 nM | 25 nM | 21.2% | 110 nM | 33.2% | 17.6% | 13.2% | – | – | – | – | – | – | – | – | – | – | –
Cn1cc(-c2cc(NS(C)(=O)=O)ccc2Oc2cccc(Br)c2)n2cncc2c1=O | 29.4% | 57 nM | 61 nM | 45.9% | 450 nM | 36.1% | 34.9% | 67.2% | – | – | – | – | – | – | – | – | – | – | –
CCS(=O)(=O)Nc1ccc(Oc2cc(F)ccc2C)c(-c2cn(C)c(=O)c3cncn23)c1 | 33.8% | 22 nM | 34 nM | 13.2% | 440 nM | 2.9% | 7.6% | 11.2% | – | – | – | – | – | – | – | – | – | – | –
CCS(=O)(=O)Nc1ccc(Oc2ccc(F)cc2F)c(-c2cn(C)c(=O)c3[nH]ccc23)c1 [MIVEBRESIB] | 51.2% | 39 nM | 47 nM | 60.8% | 120 nM | 42.7% | 69% | 60.9% | – | – | – | – | – | – | – | – | – | – | –
Cc1noc(C)c1-c1cccc(Oc2ccc(NS(C)(=O)=O)cc2-c2cn(C)c(=O)c3cncn23)c1 | 28.9% | 162 nM | 179 nM | – | 1230 nM | 31.7% | – | – | – | – | – | – | – | – | – | – | – | – | –
Cn1cc(-c2cc(NS(C)(=O)=O)ccc2Oc2ccc(Br)cc2)n2cncc2c1=O | 33.1% | 37 nM | 44 nM | 66.7% | 230 nM | 34.8% | 54.2% | 61.2% | – | – | – | – | – | – | – | – | – | – | –
Cc1noc(C)c1-c1ccc(Oc2ccc(NS(C)(=O)=O)cc2-c2cn(C)c(=O)c3cncn23)cc1 | 23.7% | 141 nM | 153 nM | – | 1120 nM | 26.4% | – | – | – | – | – | – | – | – | – | – | – | – | –
CCS(=O)(=O)Nc1ccc(Oc2cc(F)c(F)c(F)c2)c(-c2cn(C)c(=O)c3cncn23)c1 | 46% | 46 nM | 140 nM | 55.8% | 590 nM | 28.7% | 54.3% | 36% | – | – | – | – | – | – | – | – | – | – | –
CCS(=O)(=O)Nc1ccc(Oc2cccc(-c3c(C)noc3C)c2)c(-c2cn(C)c(=O)c3cncn23)c1 | 19.7% | 92 nM | 81 nM | – | 530 nM | 25.1% | – | – | – | – | – | – | – | – | – | – | – | – | –
Cn1cc(-c2cc(NS(C)(=O)=O)ccc2Oc2ccc(F)cc2)n2cncc2c1=O | 24.2% | 44 nM | – | 100% | 370 nM | 25.3% | 78% | 75.9% | – | – | – | – | – | – | – | – | – | – | –
CCS(=O)(=O)Nc1ccc(Oc2ccc(C(C)C)cc2)c(-c2cn(C)c(=O)c3cncn23)c1 | 50.4% | 49 nM | 36 nM | 13.1% | 110 nM | 35.4% | 3.9% | 17.2% | – | – | – | – | – | – | – | – | – | – | –
